How the values were obtained:
native tau aggregates = assay: Film autoradiography of AD brain tissue sections; format: binding, human
Experimental: Film autoradiography of AD Brain Tissue Sections are performed in a manner consistent with previously published methods (See Zhang, W., et al. F-18 stilbenes as PET imaging agents for detecting beta-amyloid plaques in the brain. Journal of Medicinal Chemistry, 48: 5980-5988, 2005, Zhang, W., et al. F-18 stilbenes as PET imaging agents for amyloid plaque imaging. Nucl Med Biol. 2007 34(1):89-97.)
Postmortem AD diagnosed human brain sections (frontal lobe, 10 um) are covered with 0.5 ml of [^18F]T807 (in 2.5:2.5:95=DMSO:ethanol:1X-phospate buffered saline (PBS), about 20 uCi of [^18F]T807 per slide, and incubated for 60 minutes at room temperature. Then successive washing cycles are employed with 2 minutes of 1× PBS, 2 minutes of 30% ethanol/1× PBS, 2 minutes of 70% ethanol/1× PBS, and 2 minutes 1× PBS, to remove any unbound tracer. After drying under a fume hood, the sections are put on a FujiFilm radio-sensor cassette and exposed over night. The autoradiography signal is recorded in the radio-sensor sheet and is read/visualized with the FujiFilm Bio-Imaging System FLA-7000. Autoradiographic visualization of tau is observed in gray matter of postmortem AD brain tissue. See FIG. 2 which illustrates [^18F]T807 labeling of tau in post-mortem frontal lobe sections (10 um) of tau-positive human brain tissue from patients with AD, approximately 20 uCi of [^18F]T807 per slide. Strong autoradiography signal of [^18F]T807 is observed on the grey matter (GM) region, and the presence of tau in these regions are confirmed by tau-immunostaining. The non-specific or background [^18F]T807 signal is shown in the white matter region (WM) and is low.

[1] = Solubility of precursor in DMSO; format: physicochemical; settings: no sonication or heating required
Source text: The solubility of the precursor compound affects the ability of the compound to get into solution so that a reaction to produce [^18F]T807 can effectively occur.

PHF-tau = settings: cited from Alzheimer's & Dementia 2013; cited from earlier work

SMILES: Fc1ccc(-c2ccc3c(c2)[nH]c2ccncc23)cn1 [Example T807, 7-(6-fluoro-3-pyridyl)-5H-pyrido[4,3-b]indole, reference compound]
- blocking of the [18F]T807 autoradiography signal (specificity for native tau aggregates) (native tau aggregates; 1 uM of cold T807, human AD brain sections): blocking effect

SMILES: CC(C)(C)OC(=O)n1c2ccncc2c2ccc(-c3ccc([N+](C)(C)C)nc3)cc21.Cc1ccc(S(=O)(=O)[O-])cc1 [formula Ia, 5-(5-(tert-butoxycarbonyl)-5H-pyrido[4,3-b]indol-7-yl)-N,N,N-trimethylpyridin-2-aminium 4-methylbenzenesulfonate]
- solubility in DMSO [1]: readily soluble

SMILES: [18F]c1ccc(-c2ccc3c(c2)[nH]c2ccncc23)cn1 [[^18F]T807, 7-(6-[^18F]fluoro-3-pyridyl)-5H-pyrido[4,3-b]indole]
- affinity and selectivity to PHF-tau (PHF-tau): high
- non-specific or background signal in the white matter region (WM) (native tau aggregates; post-mortem frontal lobe sections (10 um) of tau-positive human AD brain, about 20 uCi per slide): low
- autoradiography signal on the grey matter (GM) region (native tau aggregates; post-mortem frontal lobe sections (10 um) of tau-positive human AD brain, about 20 uCi per slide, 60 minutes at room temperature): Strong

Source: patent US20160228586A1, “Compounds and Their Use for Preparation of Tau Imaging Agents and Tau Imaging Formulations” (ELI LILLY AND COMPANY, priority 2013, published 2016)
